# Experimental data: patent publication US8957108B2, “Use of 5,6-dimethylxanthenone-4-acetic acid as an antiviral agent” (University of Maryland, Baltimore, priority 2006, dated 2015)
# Assays:
# IFN-β−/− macrophages = conditions: IFN-β-deficient cells, DMXAA 3 h vs unstimulated wild-type cells
# TBK1−/− MEFs = test: Quantitative real-time PCR in mouse embryonic fibroblasts; conditions: 2 h
# Influenza/A/Wuhan = test: Assay of indirect inhibition of viral infection (influenza, MDCK cells, CPE); conditions: CPE of influenza virus on MDCK cells
compound,measurement,setting,value
"Cc1ccc2c(=O)c3cccc(CC(=O)O)c3oc2c1C [DMXAA, 5,6-dimethylxanthenone-4-acetic acid]",IFIT2 Fold Change: IFNβ−/−,IFN-β−/− macrophages,14.3 fold
same,IFIT3 Fold Change: IFNβ−/−,IFN-β−/− macrophages,10.5 fold
same,IFNA5 Fold Change: IFNβ−/−,IFN-β−/− macrophages,2.5 fold
same,IFNA6 Fold Change: IFNβ−/−,IFN-β−/− macrophages,9.1 fold
same,IFNB1 Fold Change: IFNβ−/−,IFN-β−/− macrophages,1.1 fold
same,IFNG Fold Change: IFNβ−/−,IFN-β−/− macrophages,59.4 fold
same,IGTP Fold Change: IFNβ−/−,IFN-β−/− macrophages,1.2 fold
same,IIGP1 Fold Change: IFNβ−/−,IFN-β−/− macrophages,1.2 fold
same,IL6 Fold Change: IFNβ−/−,IFN-β−/− macrophages,13.5 fold
same,IL12B Fold Change: IFNβ−/−,IFN-β−/− macrophages,1.4 fold
same,IL15 Fold Change: IFNβ−/−,IFN-β−/− macrophages,1.7 fold
same,IL15RA Fold Change: IFNβ−/−,IFN-β−/− macrophages,3.3 fold
same,IRF1 Fold Change: IFNβ−/−,IFN-β−/− macrophages,1.2 fold
same,IRF2 Fold Change: IFNβ−/−,IFN-β−/− macrophages,1.2 fold
same,IRGM Fold Change: IFNβ−/−,IFN-β−/− macrophages,2.3 fold
same,ISG20 Fold Change: IFNβ−/−,IFN-β−/− macrophages,3.4 fold
same,KATNA1 Fold Change: IFNβ−/−,IFN-β−/− macrophages,1.5 fold
same,LGP2 Fold Change: IFNβ−/−,IFN-β−/− macrophages,2.7 fold
same,LHX2 Fold Change: IFNβ−/−,IFN-β−/− macrophages,7.8 fold
same,LOC129607 Fold Change: IFNβ−/−,IFN-β−/− macrophages,7.8 fold
same,MAFK Fold Change: IFNβ−/−,IFN-β−/− macrophages,1.6 fold
same,MARCH5 Fold Change: IFNβ−/−,IFN-β−/− macrophages,1.9 fold
same,MOV10 Fold Change: IFNβ−/−,IFN-β−/− macrophages,1.2 fold
same,MX1 Fold Change: IFNβ−/−,IFN-β−/− macrophages,9.3 fold
same,MX2 Fold Change: IFNβ−/−,IFN-β−/− macrophages,1.1 fold
same,NMI Fold Change: IFNβ−/−,IFN-β−/− macrophages,1.6 fold
same,NP Fold Change: IFNβ−/−,IFN-β−/− macrophages,1.7 fold
same,NT5C3 Fold Change: IFNβ−/−,IFN-β−/− macrophages,1.8 fold
same,OAS1B Fold Change: IFNβ−/−,IFN-β−/− macrophages,2.1 fold
same,OASL Fold Change: IFNβ−/−,IFN-β−/− macrophages,19.7 fold
same,P4HA1 Fold Change: IFNβ−/−,IFN-β−/− macrophages,3.4 fold
same,P8 Fold Change: IFNβ−/−,IFN-β−/− macrophages,1.3 fold
same,PARP9 Fold Change: IFNβ−/−,IFN-β−/− macrophages,1.4 fold
same,PELI1 Fold Change: IFNβ−/−,IFN-β−/− macrophages,4.3 fold
same,PGF Fold Change: IFNβ−/−,IFN-β−/− macrophages,20.2 fold
same,PLAU Fold Change: IFNβ−/−,IFN-β−/− macrophages,2.3 fold
same,PPP1R15A Fold Change: IFNβ−/−,IFN-β−/− macrophages,1.6 fold
same,PTX3 Fold Change: IFNβ−/−,IFN-β−/− macrophages,1.3 fold
same,PVRL2 Fold Change: IFNβ−/−,IFN-β−/− macrophages,3.1 fold
same,PVRL4 Fold Change: IFNβ−/−,IFN-β−/− macrophages,4.3 fold
same,REL Fold Change: IFNβ−/−,IFN-β−/− macrophages,1.1 fold
same,RGC32 Fold Change: IFNβ−/−,IFN-β−/− macrophages,3.0 fold
same,RIPK2 Fold Change: IFNβ−/−,IFN-β−/− macrophages,1.3 fold
same,RSAD2 Fold Change: IFNβ−/−,IFN-β−/− macrophages,7.8 fold
same,SAP30 Fold Change: IFNβ−/−,IFN-β−/− macrophages,1.6 fold
same,SAV1 Fold Change: IFNβ−/−,IFN-β−/− macrophages,2.6 fold
same,SDC4 Fold Change: IFNβ−/−,IFN-β−/− macrophages,3.3 fold
same,SECTM1 Fold Change: IFNβ−/−,IFN-β−/− macrophages,1.2 fold
same,SLC7A2 Fold Change: IFNβ−/−,IFN-β−/− macrophages,1.8 fold
same,SOAT1 Fold Change: IFNβ−/−,IFN-β−/− macrophages,1.9 fold
same,SOCS1 Fold Change: IFNβ−/−,IFN-β−/− macrophages,3.4 fold
same,STAT2 Fold Change: IFNβ−/−,IFN-β−/− macrophages,1.7 fold
same,TGTP Fold Change: IFNβ−/−,IFN-β−/− macrophages,1.6 fold
same,TLK2 Fold Change: IFNβ−/−,IFN-β−/− macrophages,1.4 fold
same,TLR3 Fold Change: IFNβ−/−,IFN-β−/− macrophages,1.3 fold
same,TMOD3 Fold Change: IFNβ−/−,IFN-β−/− macrophages,2.3 fold
same,TNF Fold Change: IFNβ−/−,IFN-β−/− macrophages,1.4 fold
same,TNFRSF11B Fold Change: IFNβ−/−,IFN-β−/− macrophages,100.0 fold
same,TNFSF9 Fold Change: IFNβ−/−,IFN-β−/− macrophages,1.7 fold
same,TOR1AIP1 Fold Change: IFNβ−/−,IFN-β−/− macrophages,1.3 fold
same,TPST1 Fold Change: IFNβ−/−,IFN-β−/− macrophages,6.1 fold
same,TREX1 Fold Change: IFNβ−/−,IFN-β−/− macrophages,5.2 fold
same,TRIM21 Fold Change: IFNβ−/−,IFN-β−/− macrophages,2.6 fold
same,TRIM25 Fold Change: IFNβ−/−,IFN-β−/− macrophages,2.3 fold
same,TRIM34 Fold Change: IFNβ−/−,IFN-β−/− macrophages,1.9 fold
same,USP18 Fold Change: IFNβ−/−,IFN-β−/− macrophages,1.0 fold
same,VCAM1 Fold Change: IFNβ−/−,IFN-β−/− macrophages,1.6 fold
same,ZBP1 Fold Change: IFNβ−/−,IFN-β−/− macrophages,4.2 fold
same,ZNF313 Fold Change: IFNβ−/−,IFN-β−/− macrophages,1.5 fold
same,RANTES mRNA in TBK1-deficient MEFs,TBK1−/− MEFs,fail to express
same,TNF-α mRNA in TBK1-deficient MEFs,TBK1−/− MEFs,fail to express
same,IC50 indirect antiviral activity,Influenza/A/Wuhan,2.0 µg/mL
